The test system of the data set is HeLa cells. In words: Aptamer uptake, confocal fluorescence microscopy of live HeLa cells. The class given is cell-based. The following applies: 200 nM Cy5-labelled aptamer, increasing lengths of time, Lysotracker and early endosome GFP stains. As to the method: Cells were imaged by confocal microscopy after treatment with 200 nM Cy5-labelled E07 min A-1.0 aptamer (A-1.0) or 200 nM Cy5-labelled constructs (SQ1-1000-001). For aptamer uptake experiments, 1×10^4 cells were plated in each well of a μ-Slide 8 well ibiditreat chamber (IBIDI), in 300 μL DMEM containing 10% v/v FBS. For uptake experiments, 3.4×10^3 cells (HeLa, MDA-MB-231 and A549 cells) or 6.8×10^3 cells (Mcf-7) were plated in each well of a μ-Slide 18 well ibiditreat chamber (IBIDI), in 100 μL DMEM containing 10% v/v FBS. 5 hours after cells had adhered and 48 hours before imaging, media was replaced with 50 particles per cell (PPC) CellLight early endosome-GFP (Thermo Fisher Scientific) for overnight incubation at 37° C. Additionally, 200 μL DMEM aliquots containing 200 nM aptamer were added to cells at corresponding incubation time points. Subsequently, media was removed and replaced with 60 nM LysoTracker Red DND-99 (Thermo Fisher Scientific) in 100-200 μL DMEM for 1 hour at 37° C. Cells were then washed once with Hank's Balanced Salt Solution (HBSS) (Gibco). Finally, 100-200 μL imaging media (HBSS buffered with 20 mM 4-(2-hydroxyethyl)-1-piperazineethanesulfonic acid (HEPES), adjusted to pH 7.4) was added to cells. Confocal images were captured with an EVOS microscope or a Zeiss LSM510 laser scanning microscope using 60× oil objective lens. […]

The values below come from patent US11357865B2, “Compositions containing nucleic acid nanoparticles with modular functionality” (Sixfold Bioscience Ltd., priority 2020, dated 2022).

Regarding “A-1.0: E07min aptamer, EGFR-targeting, 5′ Cy5, 2′F U, C, SEQ ID 75 (GGACGGAUUUAAUCGCCGUAGAAAAGCAUGUCAAAGCCGGAACCGUCC; 5′ Cy5; 2′F U and C; 2′ fluorine)”, the “intracellular localisation after internalisation” value was “accumulate in lysosomes after internalisation”.
